From patent US11213511B2, “Composition for preventing or treating SARS coronavirus 2 infection disease” (priority 2020, dated 2022)
Where “and” joins values, the source holds several entries; their conditions need not be identical. Equal values may be shown once. Read-outs that look alike come from different tables or passages of the source.

Assays:
SARS CoV-2 (NCCP-43326) [1] = type: cell-based
SARS CoV-2 (NCCP-43326) [2] = assay: Observation of cell morphology according to medicament treatment; type: cell-based; conditions: 10 to 20 μM, VERO cell, FIG. 3
SARS-CoV-2 3CL protease = SARS-CoV-2 3CL protease (Severe acute respiratory syndrome coronavirus 2, UniProt P0DTD1); assay: biochemical; conditions: for inhibition at 30 µM: read-out: activity of 3CL protease inhibited
[3] = target: T1, ACE2 and SARS-CoV-2 Spike S1 protein binding (UniProt P0DTC2+Q9BYF1); assay: biochemical
T1 construct: Spike S1, Fc fusion, Avi-tag, Biotin Labeled (SARS-CoV-2) (BPS Bioscience, 100679); Fc fusion; Avi-tag (biotin labeled); His-Tag (Eu-labeled); purchased BPS Bioscience 100705 (ACE2); 100679 (Spike S1)

[4] = test system: severe acute respiratory syndrome coronavirus 2; assay: Medicament efficacy of Sulfinpyrazone in SARS coronavirus 2 infected animal model (Example 7); type: in vivo, Syrian Hamster; conditions: 50 MPK (50 mg/kg/day), PO twice daily, 4 days of continuous administration, vs virus alone infected group
VERO cell = conditions: for Viability: 72 hours, MTT; for cell survival: 10 to 20 μM
[5] = test system: severe acute respiratory syndrome coronavirus 2; set-up: species or system Syrian Hamster; conditions: hamster, in vivo

T1 sequence (Q9BYF1 18-740, one chain of several): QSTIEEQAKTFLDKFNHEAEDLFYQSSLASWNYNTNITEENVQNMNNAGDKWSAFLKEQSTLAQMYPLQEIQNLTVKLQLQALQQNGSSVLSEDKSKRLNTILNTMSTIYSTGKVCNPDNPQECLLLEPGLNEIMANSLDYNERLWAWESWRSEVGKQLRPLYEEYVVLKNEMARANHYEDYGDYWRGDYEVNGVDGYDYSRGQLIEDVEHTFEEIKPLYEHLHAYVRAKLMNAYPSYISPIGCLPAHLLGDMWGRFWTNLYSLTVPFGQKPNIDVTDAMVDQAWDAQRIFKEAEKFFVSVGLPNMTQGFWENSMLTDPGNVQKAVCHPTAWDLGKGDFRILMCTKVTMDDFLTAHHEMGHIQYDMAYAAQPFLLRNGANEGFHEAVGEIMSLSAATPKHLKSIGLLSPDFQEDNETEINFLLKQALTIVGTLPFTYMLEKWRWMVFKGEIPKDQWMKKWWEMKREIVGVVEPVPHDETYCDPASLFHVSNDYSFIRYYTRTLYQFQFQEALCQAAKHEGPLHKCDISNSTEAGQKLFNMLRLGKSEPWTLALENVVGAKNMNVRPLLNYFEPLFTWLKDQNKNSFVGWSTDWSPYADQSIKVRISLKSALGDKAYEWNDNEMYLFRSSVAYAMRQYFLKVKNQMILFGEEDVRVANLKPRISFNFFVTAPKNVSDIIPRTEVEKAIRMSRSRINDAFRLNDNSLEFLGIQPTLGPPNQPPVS

Structure (SMILES) | CPE Reduction (%) (SARS CoV-2 (NCCP-43326) [1]) | change in cell morphology of virus-infected cells (SARS CoV-2 (NCCP-43326) [2]) | activity at 0.001 µM (SARS-CoV-2 3CL protease) | activity at 0.003 µM (SARS-CoV-2 3CL protease) | activity at 0.01 µM (SARS-CoV-2 3CL protease) | activity at 0.03 µM (SARS-CoV-2 3CL protease) | activity at 0.1 µM (SARS-CoV-2 3CL protease) | activity at 0.3 µM (SARS-CoV-2 3CL protease) | activity at 1 µM (SARS-CoV-2 3CL protease) | activity at 3 µM (SARS-CoV-2 3CL protease) | activity at 10 µM (SARS-CoV-2 3CL protease) | activity at 30 µM (SARS-CoV-2 3CL protease) | % Activity (SARS-CoV-2 3CL protease; 0.003 µM) | % Activity (SARS-CoV-2 3CL protease; 0.01 µM) | % Activity (SARS-CoV-2 3CL protease; 0.3 µM) | % Activity (SARS-CoV-2 3CL protease; 3 µM) | % Activity (SARS-CoV-2 3CL protease; 10 µM) | % Activity (SARS-CoV-2 3CL protease; 30 µM) | inhibition at 30 µM (SARS-CoV-2 3CL protease) | activity at 0.002 µM [3] | also measured
O=C1C(CC[S+]([O-])c2ccccc2)C(=O)N(c2ccccc2)N1c1ccccc1 (racemic) [Sulfinpyrazone, 1,2-diphenyl-4-[2-(phenylsulfinyl)ethyl]pyrazolidine-3,5-dione] | 33.1 ± 7.0% and 40.7 ± 8.0% | morphology change was small | 96% | 104% | 100% | 103% | 103% | 102% | 99% | 92% | 90% | 82% | 101% | 101% | 94% | 95% | 95% | 80% | ~20% | 96% | % Activity (SARS-CoV-2 3CL protease; 0.001 µM): 101%; % Activity (SARS-CoV-2 3CL protease; 1 µM): 98%; TR-FRET ratio [3]: 0.96 and 0.97 and 0.95 and 0.93 and 0.94; activity at 0.005 µM [3]: 97%; activity at 0.014 µM [3]: 100%; activity at 0.041 µM [3]: 98%; activity at 0.123 µM [3]: 100%; activity at 0.37 µM [3]: 99%; activity at 1.111 µM [3]: 101%; activity at 3.333 µM [3]: 98%; activity at 10 µM [3]: 100%; activity at 30 µM [3]: 99%; efficacy in inhibiting the binding of ACE2 and Spike S1 proteins [3]: no efficacy; % Activity ([3]; 0.002 µM): 95%; % Activity ([3]; 10 µM): 95%; Gross pneumonia lesion amelioration percentage (%) [4]: 15.6%; Viability (VERO cell; 10 μM): 108.3 ± 0.4%; Viability (VERO cell; 20 μM): 99.6 ± 7.3%; cell survival (VERO cell): excellent cell survival
CCC(CC)COC(=O)[C@H](C)N[P@](=O)(OC[C@H]1O[C@@](C#N)(c2ccc3c(N)ncnn23)[C@H](O)[C@@H]1O)Oc1ccccc1 [Remdesivir] |  |  |  |  |  |  |  |  |  |  |  |  |  |  |  |  |  |  |  |  | gross cure rate [5]: 44.3%
COc1cc(C(=O)NS(=O)(=O)c2ccccc2C)ccc1Cc1cn(C)c2ccc(NC(=O)OC3CCCC3)cc12 [Zafirlukast, cyclopentyl3-{2-methoxy-4-[(o-tolylsulfonyl)carbamoyl]benzyl}-1-methyl-1H-indol-5-ylcarbamate] | 60.1 ± 7.1% and 75.6 ± 3.9% | morphology change was small | 100% | 95% | 94% | 97% | 95% | 95% | 90% | 89% | 78% | 52% | 98% | 103% | 98% | 87% | 77% | 55% | ≥ 45% | 91% | % Activity (SARS-CoV-2 3CL protease; 0.03 µM): 99%; activity at 0.005 µM [3]: 96%; activity at 0.014 µM [3]: 92%; activity at 0.041 µM [3]: 99%; activity at 0.123 µM [3]: 97%; activity at 0.37 µM [3]: 101%; activity at 1.111 µM [3]: 93%; activity at 3.333 µM [3]: 102%; activity at 10 µM [3]: 96%; activity at 30 µM [3]: 95%; efficacy in inhibiting the binding of ACE2 and Spike S1 proteins [3]: no efficacy; % Activity ([3]; 0.005 µM): 94%; % Activity ([3]; 10 µM): 98%; amelioration effects in the gross lung lesion [5]: very excellent amelioration effects; amelioration in bilateral pneumonia, pulmonary edema, and pulmonary bleeding aspects ([5]; po): excellent amelioration; treatment effect compared to the control medicament Remdesivir ([5]; po): superior treatment effect; Viability (VERO cell; 10 μM): 109.7 ± 2.8%; Viability (VERO cell; 20 μM): 89.3 ± 0.7%; cell survival (VERO cell): excellent cell survival
